What is called IC50 is the midpoint of a concentration-inhibition curve. In general, MRT refers to a mean duration of stay, worked out from the concentration-time curve. As usually defined, the Kd is the free concentration of one partner at which half of the binding sites on the other are occupied at equilibrium, for simple one-to-one binding.

The results in this text go back to patent publication US20250326722A1 (SHANGHAI HANSOH BIOMEDICAL CO., LTD., priority 2022, published 2025).

Data set [1] deals with LDLR level in HepG2 cells. Description: Effect on the LDLR level in HepG2 cells (ELISA). The class given is cell-based, human. Also on record: concentration or dose not given beside the values. The settings on record: 48 hours incubation, LDLR ELISA of lysate. The procedure: To detect the effect of the compounds on the LDLR protein level.
Envision (PE-Cisbio: 2105-0020), centrifuge (Eppendorf: 5810R), water purifier (THERMO: Pacific T II+Micropure), plate washer (Thermo: […] VERSA), and microplate shaker (Thermo: 88882006)
• 1) HepG2 cell strain was cultured in the complete culture medium at 37° C., 5% CO2 to 70-90% confluence. • 2) The cells were digested and resuspended in the experimental culture medium, inoculation was performed at 25,000 cells/well/200 μL in a 96-well cell culture plate, and the cells were cultured at 37° C., 5% CO2 for 20-24 hours. • 3) The culture medium was removed from the cell culture plate, and the cell culture plate was washed once by adding 200 μl of the experimental culture medium to each well. • 4) Preparation of positive control compound and compound to be tested: the positive control compound and the compound to be tested were diluted on the compound plate. • 5) The diluted compound was added to the cell culture plate at 250 μL per well and incubated at 37° C. and 5% CO2 for 48 hours. • 6) The cell culture medium was removed, the cells were washed with PBS, and 50 μL of the cell lysis buffer and the protein inhibitor were added. • 7) After centrifugation, the lysate was removed and the sample was stored for later use. • 8) Preparation of standard curve: corresponding volumes of Dilution buffer were successively added to respective standard tubes, and the standard was diluted in series by taking the corresponding volume from the original tube or the last concentration tube. • 9) Preparation of washing liquid: 10× Wash buffer was diluted into 1× with Milli-Q for later use. • 10) According to the standard curve wells and sample wells set according to a plate map, 80 μL/well of the corresponding standards and samples were added to the wells, with 2 replicate wells. A well in which no standard was added was used as a background value well. A self-adhesive seal was applied, the plate was placed on a plate shaker at room temperature, gently shaken, uniformly mixed, and incubated for 2 hours. • 11) The plate was placed on the plate washer, the washing liquid was set to 350 μL per well, and the plate was washed 4 times repeatedly. • 12) 200 μL of Human LDLR conjugate was added, a self-adhesive seal was applied, and the plate was placed on the plate shaker, well mixed uniformly, and incubated for 2 hours. • 13) The plate was placed on the plate washer, the washing liquid was set to 350 μL per well, and the plate was washed 4 times repeatedly. • 14) 200 μL/well of Substrate solution was added, and the plate was placed in the dark, applied with a self-adhesive seal, placed on the plate shaker, well mixed uniformly, and incubated for 20 minutes. • 15) 50 μL/well of Stop solution was added and mixed uniformly over 20 min. • 16) The optical density (OD) value in each well was measured in sequence at a wavelength of 450 nm by the microplate reader.
(§1) After the OD values were read by the microplate reader, the OD value of the 0-concentration standard in the standard group was subtracted from the OD values of the standards, control group, and samples to obtain the actual OD values for these wells. A standard curve was plotted with Graphpad and the concentration of the sample was calculated. If the dilution was performed during the sample detection, the calculated sample concentration was necessarily multiplied by the corresponding dilution ratio in the final calculation, which was the actual concentration of the sample. Concentration increase %=(actual concentration in control-actual concentration in sample)/actual concentration in control*100.
Background: In an ELISA, binding on a coated surface is turned into a signal by an enzyme label.

Data set [2] addresses PCSK9 secreted by HepG2 cells (Homo sapiens (Human), UniProt Q8NBP7). Description: Effect on the concentration of PCSK9 secreted by HepG2 cells (ELISA). It counts as cell-based. As to conditions: 48 hours incubation, read-out: Inhibitory activity on PCSK9, IC50.
Text: • 1. Experimental objective: To detect the inhibitory effect of the compounds on PCSK9. • 2. Experimental instruments and reagents: • 2.1 Instruments:
• CircuLex Human PCSK9 ELISA kit (MBL: CY-8079); • DMEM (Gibco: 31966-021) • FBS (Sigma: S5394) • Compound plate (Thermo: 1353506) • Complete culture medium: DMEM+10% FBS+1×P/S; • Experimental culture medium: DMEM+10% FBS • Cell strain: HepG2 (ATCC: HB-8065)
A self-adhesive seal was applied, the plate was placed on a plate shaker at room temperature, gently shaken, uniformly mixed, and incubated for 1 hour. • 11) The plate was placed on the plate washer, the washing liquid was set to 350 μL per well, and the plate was washed 4 times repeatedly. • 12) 100 μL/well of an HRP-conjugated detection antibody was added, a self-adhesive seal was applied, and the plate was placed on the plate shaker, well mixed uniformly, and incubated for 1 hour. • 13) The plate was placed on the plate washer, the washing liquid was set to 350 μL per well, and the plate was washed 4 times repeatedly. • 14) 100 μL/well of Substrate reagent was added, and the plate was placed in the dark, applied with a self-adhesive seal, placed on the plate shaker, well mixed uniformly, and incubated for 10-20 minutes. • 15) 100 μL/well of Stop solution (1N H2SO4) was added and mixed uniformly. • 16) The optical density (OD) value in each well was measured in sequence at a wavelength of 450 nm by the microplate reader. Detection was carried out within 30 min after the reaction was stopped.
as §1, with “Inhibition rate=(actual” for “Concentration increase %=(actual”, “control*100. According to the inhibition rates corresponding to the different concentrations, IC50 was derived by Graphpad.” for “control*100.”

A short description of data set [3]: Pharmacokinetic determination in mice (plasma). It counts as in vivo, C57BL/6J mice. As to conditions: C57 mice, PO administration, 5 mpk; for AUC(0-inf) / half-life / MRT / Cmax: male, C57BL/6J, mouse, 5 mg/kg; for AUC(0-inf): read-out: Area under the curve AUC0-∞; for half-life: read-out: Half-life t1/2 (converted); for MRT: read-out: Mean residence time MRT; for Cmax: read-out: Plasma concentration Cmax. The procedure: C57BL/6J mice were used as test animals to study the pharmacokinetic behavior of the compounds of the present disclosure in mice (plasma) after oral and intravenous administration.
C57 mice, male, purchased from Shanghai Bk Lab Animal Co., Ltd., with animal production license number (SCXK (Shanghai) 2013-0006 NO.311620400001794).
• Preparation of oral drug: 10% Solutol HS15
10 g of Solutol HS15 solid was weighed, dissolved in 90 mL of pure water, uniformly mixed, stirred, and ultrasonically treated to form a clear solution.
The compound of the present disclosure was weighed and dissolved in this solution, uniformly shaken, and ultrasonically treated for 15 minutes to obtain a colorless clear solution with a concentration of 0.5 mg/mL. • Preparation of intravenous drug: 5% DMSO+10% Solutol HS15+85% PBS […]
3 male C57 mice were fasted overnight and then respectively administered PO at a dose of 5 mg/kg and a volume of 10 mL/kg. […]
Before and after administration of mice, 0.04 mL of blood was collected from the orbit at 0.083 (iv), 0.25, 0.5, 1, 2, 4, 8, and 24 hours, and placed in EDTA-K2 test tubes, which was centrifuged at 6000 rpm at 4° C. for 6 min to separate plasma which was stored at −80° C.; and the […] were fed 4 h after administration.
The final determination results were obtained by using an LCMS/MS method.
The main pharmacokinetic parameters were calculated using WinNonlin 6.1.

Data set [4] addresses PCSK9 protein (Homo sapiens (Human), UniProt Q8NBP7). Description: Binding experiment: surface plasmon resonance (SPR) binding to PCSK9 protein. The text has this:
• 1. Experimental objective: To detect the action of compounds to bind PCSK9 protein by a conventional surface plasmon resonance (SPR) method.
In general terms: In SPR one partner is held on a chip, and binding of the other changes the refractive index at the surface.

PCSK9 secreted by HepG2 cells, sequence (Q8NBP7 153-692): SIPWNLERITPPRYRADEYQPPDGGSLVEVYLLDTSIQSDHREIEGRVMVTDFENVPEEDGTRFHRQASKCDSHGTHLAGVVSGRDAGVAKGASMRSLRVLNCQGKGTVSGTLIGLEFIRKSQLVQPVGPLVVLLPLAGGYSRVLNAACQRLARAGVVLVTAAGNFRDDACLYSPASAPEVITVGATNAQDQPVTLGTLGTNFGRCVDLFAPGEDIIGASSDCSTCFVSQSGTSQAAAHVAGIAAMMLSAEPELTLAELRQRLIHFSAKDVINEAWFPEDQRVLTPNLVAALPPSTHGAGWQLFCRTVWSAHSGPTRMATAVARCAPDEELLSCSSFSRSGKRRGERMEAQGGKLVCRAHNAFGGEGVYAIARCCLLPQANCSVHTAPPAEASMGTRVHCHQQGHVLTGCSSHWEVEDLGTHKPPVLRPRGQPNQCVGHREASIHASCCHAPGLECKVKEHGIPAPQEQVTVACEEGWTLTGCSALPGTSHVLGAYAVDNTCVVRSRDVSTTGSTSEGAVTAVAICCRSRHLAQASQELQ
PCSK9 secreted by HepG2 cells, sequence (Q8NBP7 31-152 partner): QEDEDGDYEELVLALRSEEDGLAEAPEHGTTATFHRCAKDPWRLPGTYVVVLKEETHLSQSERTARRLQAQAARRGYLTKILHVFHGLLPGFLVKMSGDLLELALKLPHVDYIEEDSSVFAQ
PCSK9 protein, sequence (Q8NBP7 153-692): as the sequence (Q8NBP7 153-692) above

In data set [1], `FC(F)Oc1cnc(N[C@H]2CC[C@H](Nc3ccc(-c4cccn5ccnc45)cn3)C2)nc1` [Example 53] registered an LDLR expression level of 175%. In addition, the half-inhibitory concentration (IC50) in data set [2] is 24.1 µM.
Consider `Fc1cnn2c(-c3ccc(N[C@H]4CC[C@H](Nc5ncc(OC(F)F)cn5)C4)nc3)cccc12` [Example 102, (1S,3S)—N1-(5-(difluoromethoxy)pyrimidin-2-yl)-N^3-(5-(3-fluoropyrazolo[1,5-a]pyridin-7-yl)pyridin-2-yl)cyclopentane-1,3-diamine], for which the LDLR expression level in data set [1] was found to be 215%. For the same compound, the half-inhibitory concentration (IC50) in data set [2] turned out to be 6.3 µM.
Regarding `CC(C)(C)c1ccc2c(n1)C(=O)N(c1ccc(N[C@H]3CC[C@H](Nc4nc5cc(F)ccn5n4)C3)nc1)C2` [Example 164, 2-(Tert-butyl)-6-(6-(((1S,3S)-3-((7-fluoro-[1,2,4]triazolo[1,5-a]pyridin-2-yl)amino)cyclopentyl)amino)pyridin-3-yl)-5,6-dihydro-7H-pyrrolo[3,4-b]pyridin-7-one], in data set [1], the LDLR expression level came to 254%. Further, the half-maximal inhibitory concentration (IC50) in data set [2] turned out to be 2.8 µM.
With `Cc1nccc2c1CN(c1ccc(N[C@H]3CC[C@H](Nc4ncc(OC(F)F)cn4)C3)nc1)C2=O` [Example 115, 2-(6-(((1S,3S)-3-((5-(difluoromethoxy)pyrimidin-2-yl)amino)cyclopentyl)amino)-3-yl)-4-methyl-2,3-dihydro-1H-pyrrolo[3,4-c]pyridin-1-one], in data set [3], the Time to peak tmax was found to be 0.5 h, the AUC(0-inf) stood at 20900 ng·h/mL, the half-life is 5.8 h and the mean residence time MRT stood at 5.3 h. Further, the Cmax in data set [3] amounted to 4290 ng/mL. Moreover, in data set [4], the Kd came out at 0.0031 µM. In addition, the IC50 in data set [2] was found to be 3.8 µM.
Take `N#Cc1cnn2c(-c3ccc(N[C@H]4CC[C@H](Nc5ncc(OC(F)F)cn5)C4)nc3)cccc12` [Example 99, 7-(6-(((1S,3S)-3-((5-(difluoromethoxy)pyrimidin-2-yl)amino)cyclopentyl)amino)-3-yl) pyrazolo[1,5-a]pyridine-3-carbonitrile]: the LDLR expression level in data set [1] was determined as 274%. Moreover, the 50% inhibitory concentration (IC50) in data set [2] came out at 2.6 µM.
On the same counts, the results for `FC(F)Oc1cnc(N[C@H]2CC[C@H](Nc3ccc(-c4cccc5ccnn45)cn3)C2)nc1` [Example 52, (1S,3S)—N1-(5-(difluoromethoxy)pyrimidin-2-yl)-N3-(5-(pyrazolo[1,5-a]pyridin-7-yl)pyridin-2-yl)cyclopentane-1,3-diamine] are 278% and 11 µM.
With `O=C1c2nc(C(F)(F)F)ccc2CN1c1ccc(N[C@H]2CC[C@H](Nc3nc4cc(F)ccn4n3)C2)nc1` [Example 155, 6-(6-(((1S,3S)-3-((7-fluoro-[1,2,4]triazolo[1,5-a]pyridin-2-yl)amino)cyclopentyl)amino)pyridin-3-yl)-2-(trifluoromethyl)-5,6-dihydro-7H-pyrrolo[3,4-b]pyridin-7-one], in data set [3], the Time to peak tmax turned out to be 0.5 h, the AUC(0-inf) is 25500 ng·h/mL, the half-life was 5.9 h and the mean residence time (MRT) was found to be 1.9 h. In addition, the Cmax in data set [3] worked out at 10000 ng/mL. For the same compound, in data set [4], the dissociation constant Kd is 0.0028 µM. For the same compound, the half-maximal inhibitory concentration (IC50) in data set [2] was determined as 19.9 µM.
As to `O=C1c2ncncc2CN1c1ccc(N[C@H]2CC[C@H](Nc3ncc(OC(F)F)cn3)C2)nc1` [Example 132, 6-(6-(((1S,3S)-3-((5-(difluoromethoxy)pyrimidin-2-yl)amino)cyclopentyl)amino)pyridin-3-yl)-5,6-dihydro-7H-pyrrolo[3,4-d]pyrimidin-7-one], in data set [4], the affinity, expressed as Kd, was 0.0011 µM. Also, the 50% inhibitory concentration (IC50) in data set [2] was found to be 12 µM.
On to `O=C1c2cccnc2CN1c1ccc(N[C@H]2CC[C@H](Nc3ncc(C(F)(F)F)nn3)C2)nc1` [Example 145], for which, in data set [3], the Time to peak tmax turned out to be 0.5 h, the AUC(0-inf) was found to be 12200 ng·h/mL, the half-life is 3.8 h and the MRT came out at 4.6 h. The Cmax in data set [3] came to 2370 ng/mL. In data set [4], this compound yielded a dissociation constant Kd of 0.0032 µM. The IC50 in data set [2] amounted to 24.5 µM.
On to `O=C1c2cccnc2CN1c1ccc(NC2CCC(Nc3ncc(OC(F)(F)F)cn3)C2)nc1` [Example 122, 6-(6-(((1S,3S)-3-((5-(trifluoromethoxy)pyrimidin-2-yl)amino)cyclopentylamino)pyridin-3-yl)-6,7-dihydro-5H-pyrrolo[3,4-b]pyridin-5-one], for which, in data set [3], the “Area under the curve AUC0-∞” value worked out at 13239 ng·h/mL, the “Half-life t1/2” value was found to be 3.2 h, the “Mean residence time MRT” value is 4.5 h and the “Plasma concentration Cmax” value amounted to 2333 ng/mL. The compound also gave a Time to peak tmax in data set [3] of 0.5 h. This compound yielded a Kd in data set [4] of 0.0022 µM. Moreover, the IC50 in data set [2] stood at 1.2 µM.
In data set [4], `O=C1c2c(cccc2C(F)(F)F)CN1c1ccc(N[C@H]2CC[C@H](Nc3nc4cc(F)ccn4n3)C2)nc1` [Example 161] registered an equilibrium dissociation constant (Kd) of 0.0026 µM. Further, the IC50 in data set [2] was determined as 17.6 µM.
